Assay results as given in US20050196375A1, “Methods of applying antibiotic compounds to polyurethane biomaterials using textile dyeing technology” (priority 2000, published 2005).

How the values were obtained:
[1] = not given; remark: listed apart in the source

O=C(O)c1cn(C2CC2)c2cc(N3CCNCC3)c(F)cc2c1=O [cipro, ciprofloxacin]
exhaustion of cipro on cPU (applied concentration 0.5% owf, pH 8.6, 20:1, 45° C., 3.5 hours): about 60% | ciprofloxacin taken up by cPU (dyeing temperature 55° C., pH 8.6, 20:1, 2% owf, 3.5 hours): 70% | cipro exhausted on cPU (dyeing time 3.5 hours, pH 8.6, 20:1, 2% owf, 45° C.): about 61% | standard affinity of cipro for cPU ([1]; T 318.15 K, RT ln K): 1.12 kcal/mol | saturation value ([1]; as quoted in the description): 0.45 g/kg
